Results as given in ChEMBL document CHEMBL1143249, “N-alkyl-4-piperidinyl-2,3-diarylpyrrole derivatives with heterocyclic substitutions as potent and broad spectrum anticoccidial agents” (Bioorg Med Chem Lett, 2008).
The source made the active and inactive calls. The calls are words filed in the database; no cut-off is given here.

Assays:
Eimeria acervulina [1] = experiment: Anticoccidial activity against Eimeria acervulina in chick assessed as reduction in oocyst at 100 ppm, po after 5 days; assay type: functional; set-up: scale not given: the % may be the effect or the level left
Eimeria tenella [2] = experiment: Anticoccidial activity against Eimeria tenella in chick assessed as reduction in oocyst at 100 ppm, po after 6 days; assay type: functional; set-up: scale not given: the % may be the effect or the level left
[3] = molecular target: cGMP-dependent protein kinase (Eimeria tenella, UniProt Q8MMZ8); experiment: Inhibition of Eimeria tenella cGMP-dependent protein kinase
cGMP-dependent protein kinase, sequence (Q8MMZ8 whole entry): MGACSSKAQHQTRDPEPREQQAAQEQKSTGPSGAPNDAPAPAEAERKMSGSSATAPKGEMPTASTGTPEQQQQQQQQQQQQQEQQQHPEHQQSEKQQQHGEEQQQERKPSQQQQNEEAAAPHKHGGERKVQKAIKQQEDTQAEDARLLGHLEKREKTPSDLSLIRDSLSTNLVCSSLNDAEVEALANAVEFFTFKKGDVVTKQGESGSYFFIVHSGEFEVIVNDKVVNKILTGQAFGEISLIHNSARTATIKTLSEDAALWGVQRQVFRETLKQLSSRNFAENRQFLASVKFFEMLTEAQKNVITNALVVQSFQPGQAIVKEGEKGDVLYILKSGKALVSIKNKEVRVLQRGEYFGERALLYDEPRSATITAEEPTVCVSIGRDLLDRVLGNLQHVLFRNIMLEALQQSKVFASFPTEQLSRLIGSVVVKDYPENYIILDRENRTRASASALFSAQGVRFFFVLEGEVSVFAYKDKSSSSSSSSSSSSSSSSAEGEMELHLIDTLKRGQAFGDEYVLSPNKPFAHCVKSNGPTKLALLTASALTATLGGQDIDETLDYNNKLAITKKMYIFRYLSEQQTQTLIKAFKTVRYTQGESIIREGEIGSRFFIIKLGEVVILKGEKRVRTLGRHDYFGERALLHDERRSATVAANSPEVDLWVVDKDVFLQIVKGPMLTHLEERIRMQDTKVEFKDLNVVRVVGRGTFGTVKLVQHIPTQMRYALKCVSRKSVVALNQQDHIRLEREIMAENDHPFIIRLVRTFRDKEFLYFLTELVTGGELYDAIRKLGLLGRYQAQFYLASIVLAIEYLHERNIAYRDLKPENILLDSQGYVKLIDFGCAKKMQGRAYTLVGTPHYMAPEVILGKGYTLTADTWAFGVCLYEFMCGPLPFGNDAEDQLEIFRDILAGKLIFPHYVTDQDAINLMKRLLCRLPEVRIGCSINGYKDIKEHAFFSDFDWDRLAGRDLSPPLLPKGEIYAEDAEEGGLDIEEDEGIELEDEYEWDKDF

Eimeria acervulina [4] = experiment: Anticoccidial activity against Eimeria acervulina in chick assessed as reduction in oocyst at 50 ppm, po after 5 days; assay type: functional, organism-based
Eimeria tenella [5] = experiment: Anticoccidial activity against Eimeria tenella in chick assessed as reduction in oocyst at 50 ppm, po after 6 days; assay type: functional, organism-based

COC(=O)N1CCOC(C(=O)N2CCC(c3cc(-c4ccncc4)c(-c4ccc(F)cc4)[nH]3)CC2)C1 (stereo unspecified)
Activity (Eimeria acervulina [1]): 50%
Activity (Eimeria tenella [2]): 50%
IC50 [3]: 4.7 nM

CS(=O)(=O)N1CCN(S(C)(=O)=O)C(CN2CCC(c3cc(-c4ccncc4)c(-c4ccc(F)cc4)[nH]3)CC2)C1 (stereo unspecified)
Activity (Eimeria acervulina [1]): inactive
Activity (Eimeria tenella [2]): inactive
IC50 [3]: 1.41 nM

CC(=O)N1CCN(C(C)=O)C(CN2CCC(c3cc(-c4ccncc4)c(-c4ccc(F)cc4)[nH]3)CC2)C1 (stereo unspecified)
Activity (Eimeria acervulina [1]): inactive
Activity (Eimeria tenella [2]): inactive
IC50 [3]: 2.2 nM

OC[C@@H]1CCN1CCN1CCC(c2cc(-c3ccncc3)c(-c3ccc(F)cc3)[nH]2)CC1
Activity (Eimeria acervulina [1]): 80%
Activity (Eimeria tenella [2]): 80%
IC50 [3]: 1.7 nM

CN1CC[C@H]1CN1CCC(c2cc(-c3ccncc3)c(-c3ccc(F)cc3)[nH]2)CC1
Activity (Eimeria acervulina [1]): 80%
Activity (Eimeria tenella [2]): 80%
IC50 [3]: 0.28 nM

CCN1C[C@H](O)C[C@H]1CN1CCC(c2cc(-c3ccncc3)c(-c3ccc(F)cc3)[nH]2)CC1
Activity (Eimeria acervulina [1]): 50%
Activity (Eimeria tenella [2]): 80%
IC50 [3]: 0.36 nM

CN1CCOC(CN2CCC(c3cc(-c4ccncc4)c(-c4ccc(F)cc4)[nH]3)CC2)C1 (stereo unspecified)
Activity (Eimeria acervulina [1]): 80%
Activity (Eimeria tenella [2]): 80%
IC50 [3]: 0.67 nM
Activity (Eimeria acervulina [4]): Active
Activity (Eimeria tenella [5]): Active

CC(CN1CCC1)N1CCC(c2cc(-c3ccncc3)c(-c3ccc(F)cc3)[nH]2)CC1 (stereo unspecified)
Activity (Eimeria acervulina [1]): 80%
Activity (Eimeria tenella [2]): 80%
IC50 [3]: 0.4 nM

CN1C[C@H](O)C[C@H]1CN1CCC(c2cc(-c3ccncc3)c(-c3ccc(F)cc3)[nH]2)CC1
Activity (Eimeria acervulina [1]): 50%
Activity (Eimeria tenella [2]): 80%
IC50 [3]: 0.34 nM

O[C@H]1CN[C@H](CN2CCC(c3cc(-c4ccncc4)c(-c4ccc(F)cc4)[nH]3)CC2)C1
Activity (Eimeria acervulina [1]): 50%
Activity (Eimeria tenella [2]): 80%
IC50 [3]: 0.16 nM

CC(=O)N1C[C@H](O)C[C@H]1CN1CCC(c2cc(-c3ccncc3)c(-c3ccc(F)cc3)[nH]2)CC1
Activity (Eimeria acervulina [1]): 50%
Activity (Eimeria tenella [2]): 80%
IC50 [3]: 2.2 nM

COC(=O)N1CCOC(CN2CCC(c3cc(-c4ccncc4)c(-c4ccc(F)cc4)[nH]3)CC2)C1 (stereo unspecified)
Activity (Eimeria acervulina [1]): 50%
Activity (Eimeria tenella [2]): 80%
IC50 [3]: 1.03 nM

Fc1ccc(-c2[nH]c(C3CCN(CCN4CCC4)CC3)cc2-c2ccncc2)cc1
Activity (Eimeria acervulina [1]): 80%
Activity (Eimeria tenella [2]): 80%
IC50 [3]: 0.08 nM

CN1CCN(C)C(CN2CCC(c3cc(-c4ccncc4)c(-c4ccc(F)cc4)[nH]3)CC2)C1 (stereo unspecified)
Activity (Eimeria acervulina [1]): 50%
Activity (Eimeria tenella [2]): 50%
IC50 [3]: 1.08 nM

O=C(C1CNCCO1)N1CCC(c2cc(-c3ccncc3)c(-c3ccc(F)cc3)[nH]2)CC1 (stereo unspecified)
Activity (Eimeria acervulina [1]): 50%
Activity (Eimeria tenella [2]): 80%
IC50 [3]: 0.27 nM

O=C(CN1CCC(c2cc(-c3ccncc3)c(-c3ccc(F)cc3)[nH]2)CC1)N1CCC1
Activity (Eimeria acervulina [1]): 80%
Activity (Eimeria tenella [2]): 80%
IC50 [3]: 1.01 nM

Fc1ccc(-c2[nH]c(C3CCN(CC4CNCCN4)CC3)cc2-c2ccncc2)cc1 (stereo unspecified)
Activity (Eimeria acervulina [1]): 50%
Activity (Eimeria tenella [2]): 80%
IC50 [3]: 0.07 nM

Fc1ccc(-c2[nH]c(C3CCN(CC4CNCCO4)CC3)cc2-c2ccncc2)cc1 (stereo unspecified)
Activity (Eimeria acervulina [1]): 50%
Activity (Eimeria tenella [2]): 80%
IC50 [3]: 0.17 nM
